In publication PMC7407158, “Reprogramming of the Antibacterial Drug Vancomycin Results in Potent Antiviral Agents Devoid of Antibacterial Activity” (Pharmaceuticals, 2020):
≈ marks a conversion by molar mass, not a printed value.

How the values were obtained:
[1] = system: S. aureus MRSA ATCC 33591; test: Broth microdilution MIC, S. aureus MRSA ATCC 33591; format: cell-based; conditions: Staphylococcus aureus, read-out: In Vitro MIC
Procedure: (§1) Antibacterial tests were carried out by the broth microdilution method on a panel of eight Gram-positive bacterial strains, using vancomycin and teicoplanin as reference compounds.

[2] = system: S. aureus MSSA ATCC 29213; test: Broth microdilution MIC, S. aureus MSSA ATCC 29213; format: cell-based; conditions: Staphylococcus aureus, read-out: In Vitro MIC
Procedure: as §1

[3] = system: E. faecalis ATCC 29212; test: Broth microdilution MIC, E. faecalis ATCC 29212; format: cell-based; conditions: Enterococcus faecalis, ATCC29212, read-out: In Vitro MIC
Procedure: as §1

[4] = system: E. faecalis ATCC 51,299 VanB; test: Broth microdilution MIC, E. faecalis ATCC 51,299 VanB; format: cell-based; conditions: Enterococcus faecalis, ATCC51, read-out: In Vitro MIC
Procedure: as §1

[5] = system: S. epidermidis ATCC 35984; test: Broth microdilution MIC, S. epidermidis ATCC 35984; format: cell-based; conditions: Staphylococcus epidermidis, ATCC35984, read-out: In Vitro MIC
Procedure: as §1

[6] = system: E. faecalis 15,376 VanA; test: Broth microdilution MIC, E. faecalis 15,376 VanA; format: cell-based; conditions: Enterococcus faecalis, read-out: In Vitro MIC
Procedure: as §1

[7] = system: B. subtilis ATCC 6633; test: Broth microdilution MIC, B. subtilis ATCC 6633; format: cell-based; conditions: Bacillus subtilis, ATCC6633, read-out: In Vitro MIC
Procedure: as §1

[8] = system: MDCK cells; conditions: read-out: CC50 (50% cytotoxic concentration), mock-infected, MTS cell viability assay, three days
[9] = system: S. epidermidis mecA; test: Broth microdilution MIC, S. epidermidis mecA; format: cell-based; conditions: Staphylococcus epidermidis, read-out: In Vitro MIC
Procedure: as §1

[10] = system: vaccinia virus (strain Lederle); test: microbe, parasite or virus in culture; format: cell-based; conditions: Orthopoxvirus vaccinia, HEL, read-out: Antiviral EC50 Vaccinia Virus
[11] = in vitro; conditions: human
[12] = system: herpes simplex virus type 2 (HSV-2, strain G); test: CPE reduction, MTS assay, HSV-2 in HEL cells; format: cell-based; conditions: Human alphaherpesvirus 2, protection against virus-induced CPE, read-out: Antiviral EC50 HSV-2
[13] = in vitro; conditions: human; remark: listed apart in the source
[14] = system: herpes simplex virus type 1 (HSV-1 strain KOS); test: CPE reduction, MTS assay, HSV-1 in HEL cells; format: cell-based; conditions: Human alphaherpesvirus 1, protection against virus-induced CPE, read-out: Antiviral EC50 HSV-1
[15] = system: thymidine kinase deficient HSV-1/TK- mutant; test: microbe, parasite or virus in culture; format: cell-based, herpes simplex virus type 1; conditions: Human alphaherpesvirus 1, HEL, read-out: Antiviral EC50 HSV-1/TK-
[16] = in vitro; conditions: African green monkey
[17] = in vitro; conditions: dog
[18] = system: Influenza B (B/Ned/537/05); test: Influenza CPE reduction in MDCK cells, MTS assay, influenza B; format: cell-based; conditions: Influenza B virus, inhibition of virus-induced CPE by MTS assay, read-out: Antiviral EC50 Influenza B
[19] = system: Influenza A/H3N2 (A/Victoria/361/11); test: Influenza CPE reduction in MDCK cells, MTS assay, A/H3N2; format: cell-based; conditions: Influenza A virus, H3N2; MDCK cells; A/Victoria/361/11; inhibition of virus-induced CPE by MTS assay; read-out: Antiviral EC50 Influenza A/H3N2
[20] = system: influenza A or B viruses; test: Anti-influenza virus activity in MDCK cells, MTS assay, overall for the three influenza A or B viruses; format: cell-based, Influenza A and B viruses
[21] = system: Influenza A/H1N1 (A/Ned/378/05); test: Influenza CPE reduction in MDCK cells, MTS assay, A/H1N1; format: cell-based; conditions: Influenza A virus, H1N1; MDCK cells; A/Ned/378/05; inhibition of virus-induced CPE by MTS assay; read-out: Antiviral EC50 Influenza A/H1N1

SMILES	MIC [1]	MIC [2]	MIC [3]	MIC [4]	MIC [5]	MIC [6]	MIC [7]	CC50 [8]	MIC [9]	EC50 [10]	CC50 [11]	EC50 [12]	CC50 [13]	EC50 [14]	EC50 [15]	CC50 [16]	anti-influenza virus activity (in words) [20]	further results
CCCCCCCCCCOCc1cn(CCOCCOCCOCCOCc2cn(CCNC(=O)[C@H]3NC(=O)[C@H]4NC(=O)[C@H](NC(=O)[C@@H]5NC(=O)[C@H](CC(N)=O)NC(=O)[C@H](N)[C@H](O)c6ccc(c(Cl)c6)Oc6cc5cc(c6O)Oc5ccc(cc5Cl)[C@H]4O)c4ccc(O)c(c4)-c4c(O)cc(O)cc43)nn2)nn1 [Compound 11]	256 µg/mL (≈ 166 µM)	256 µg/mL (≈ 166 µM)	128 µg/mL (≈ 83.2 µM)	256 µg/mL (≈ 166 µM)	256 µg/mL (≈ 166 µM)	256 µg/mL (≈ 166 µM)	32 µg/mL (≈ 20.8 µM)	≥ 20 µM	256 µg/mL (≈ 166 µM)									
Nc1ccn(C[C@@H](CO)OCP(=O)(O)O)c(=O)n1 [Cidofovir]										37 µM	> 250 µM	1 µM	> 250 µM	2.4 µM	5.8 µM	> 250 µM		
Nc1nc2c(ncn2COCCO)c(=O)[nH]1 [Aciclovir]										> 250 µM	> 250 µM	0.05 µM	> 250 µM	2.4 µM	146 µM	> 250 µM		
CCCCCCS(=O)(=O)NCCNC(=O)[C@H]1NC(=O)[C@H]2NC(=O)[C@H](NC(=O)[C@@H]3NC(=O)[C@H](CC(N)=O)NC(=O)[C@H](N)[C@H](O)c4ccc(c(Cl)c4)Oc4cc3cc(c4O)Oc3ccc(cc3Cl)[C@H]2O)c2ccc(O)c(c2)-c2c(O)cc(O)cc21 [Compound 13]	256 µg/mL (≈ 212 µM)	256 µg/mL (≈ 212 µM)	64 µg/mL (≈ 53 µM)	128 µg/mL (≈ 106 µM)	128 µg/mL (≈ 106 µM)	256 µg/mL (≈ 212 µM)	256 µg/mL (≈ 212 µM)		128 µg/mL (≈ 106 µM)								only slightly active	CC50 [17]: > 100 µM; EC50 [18]: > 100 µM; EC50 [19]: 14 µM; EC50 [21]: 34 µM
CCCCSC1=C(SCCCC)C(=O)N(CCOCCOCCOCCOCc2cn(CCNC(=O)[C@H]3NC(=O)[C@H]4NC(=O)[C@H](NC(=O)[C@@H]5NC(=O)[C@H](CC(N)=O)NC(=O)[C@H](N)[C@H](O)c6ccc(c(Cl)c6)Oc6cc5cc(c6O)Oc5ccc(cc5Cl)[C@H]4O)c4ccc(O)c(c4)-c4c(O)cc(O)cc43)nn2)C1=O [Compound 12]	256 µg/mL (≈ 163 µM)	256 µg/mL (≈ 163 µM)	128 µg/mL (≈ 81.4 µM)	256 µg/mL (≈ 163 µM)	128 µg/mL (≈ 81.4 µM)	256 µg/mL (≈ 163 µM)	256 µg/mL (≈ 163 µM)	100 µM	256 µg/mL (≈ 163 µM)								only slightly active	
